Patent US20250241894A1, “TREATMENT OF MENTAL DISORDERS” (GH RESEARCH IRELAND LIMITED, priority 2022, published 2025)

System: patients with postpartum depression (PPD)
Assay: Open-label clinical trial of inhaled 5-MeO-DMT (single-day IDR) in postpartum depression; one patient so far, received 6 mg then 12 mg
Description: The single-arm, open-label clinical trial will involve 15 adult female patients with clinically diagnosed postpartum depression (PPD).
The second dose (12 mg) will only be administered if: • a. […] The 6 mg dose was safe and well-tolerated according to the investigator, • c. Any psychoactive effects (PsE) of the prior dose have subsided, and • d. Pre-dose vital parameters and forced expiratory volume in one second (FEV1) are in normal range, or if outside of the normal range, are not clinically significant according to the investigator. • 3. Similarly, a third dose (18 mg) will only be administered if: • a. […] The 12 mg dose was safe and well-tolerated according to the investigator, and • c. Any PsE of the prior dose have subsided, and • d. Pre-dose vital parameters and forced expiratory volume in one second (FEV1) are in normal range, or if outside of the normal range, are not clinically significant according to the investigator.
The patients will be assessed for a peak psychedelic experience (based on a patient-scored visual analogue scale, the PE scale), sedation, and other endpoints after dosing.
Follow-up visits are planned for Day 1, and Day 7 after the dosing day.
The following criteria must be met by all patients considered for clinical trial participation: • 1. Is female and in the age range between 18 and 45 years (inclusive) at screening. • 2. Has a body mass index (BMI) in the range of 18.5 and 35 kg/m^2 (inclusive) at screening. • 3. Meets the trial criteria for PPD as assessed by a trial psychiatrist or registered psychologist: • a. Diagnosis of Major Depressive Disorder without psychotic features, confirmed by the Mini-International Neuropsychiatric Interview (MINI), with peri-partum onset that began no earlier than gestation and no later than the first 4 weeks postpartum. • b. Has a Montgomery-Åsberg Depression Rating Scale (MADRS) total score of equal to or greater than 28 at screening and pre-dose on Day 0. • 6. […] Patients must have a negative pregnancy test at screening and on the pre-test day (Day-1). • 5. Is willing to delay start of other antidepressant or anxiety medication until after the end of the trial at Day 7 and agrees to keep any psychotherapy unchanged during the trial.

COc1ccc2[nH]cc(CCN(C)C)c2c1 [5-MeO-DMT]
ECG (3 hours), safety laboratory analyses (7 days), CADSS (3 hours, 1 day, 7 days) (n=1): unremarkable
MADRS response (>=50% improvement) and remission (total <=10) criteria (n=1): fulfilled standard criteria for MADRS response
Onset of clinical response (n=1): ≤ 2 h
Time to clinical remission (n=1): ≤ 2 h
Tolerability of inhalation procedure (n=1): well tolerated with no inhalation-related adverse events
Total MADRS improvement (n=1, 2 hr): 24
Total MADRS score (n=1, 2 hr, baseline 29): 5
Reported adverse events (cramping left abdominal pain, headache) (n=1, Day 0): mild, short-lasting and resolved spontaneously
BPRS Tension improvement (n=1, Day 1): 5
Total MADRS improvement (n=1, Day 1): 29
Total MADRS score (n=1, Day 1, baseline 29): 0
Total MADRS improvement (n=1, Day 7): 28
BIMF functional domain Adjustment score (n=1, Day 7, Day 0 5, maximum 12): 6
BIMF functional domain Self-Care score (n=1, Day 7, Day 0 9, maximum 18): 13
BIMF functional domain Infant Care score (n=1, Day 7, Day 0 12, maximum 12): 12
BIMF functional domain Mother-Child Interaction score (n=1, Day 7, Day 0 15, maximum 18): 17
BIMF functional domain Social Support score (n=1, Day 7, Day 0 17, maximum 18): 18
BIMF functional domain Management score (n=1, Day 7, Day 0 28, maximum 36): 33
BIMF functional domain Psychological Well-being score (n=1, Day 7, Day 0 44, maximum 60): 53
BIMF item 19 (As time goes on, I am getting better at taking care of my baby) score (n=1, Day 7, Day 0 score 0): 1
BIMF item 16 (I worry about how other people judge me (as a mother)) score (n=1, Day 7, Day 0 score 3): 5
BIMF item 13 (I am taking good care of my physical needs) score (n=1, Day 7, Day 0 score 4): 5
BIMF item 5 (I am able to relax and enjoy time with my baby) score (n=1, Day 7, Day 0 score 5): 6
BIMF item 9 (I am getting enough encouragement from other people) score (n=1, Day 7, Day 0 score 5): 6
BIMF item 10 (I trust my own feelings (instincts) when it comes to taking care of my baby) score (n=1, Day 7, Day 0 score 5): 6
BIMF item 11 (I take a little time each week to do something for myself) score (n=1, Day 7, Day 0 score 5): 6
BIMF item 17 (I am able to take care of my baby and my other responsibilities) score (n=1, Day 7, Day 0 score 5): 5
BIMF item 3 (I am comfortable with the way I've chosen to feed my baby) score (n=1, Day 7, Day 0 score 6): 6
BIMF item 6 (There are people in my life that I can trust to care for my baby when I need a break) score (n=1, Day 7, Day 0 score 6): 6
BIMF item 8 (I am getting enough adult interaction) score (n=1, Day 7, Day 0 score 6): 6
BIMF item 12 (I am taking good care of my baby's physical needs) score (n=1, Day 7, Day 0 score 6): 6
BIMF item 14 (I make good decisions about my baby's health and well being) score (n=1, Day 7, Day 0 score 6): 6
BIMF item 20 (I am satisfied with the job I am doing as a new mother) score (n=1, Day 7, Day 0 score 6): 5
Total MADRS score (n=1, Day 7, baseline 29): 1
BIMF total score improvement (n=1, Day 7, from 92): 14%
BIMF TOTAL Δ (n=1, Day 7 vs Day 0): 13
BIMF functional domain Adjustment % Improvement (n=1, Day 7 vs Day 0): 20.00%
BIMF functional domain Adjustment Δ (n=1, Day 7 vs Day 0): 1
BIMF functional domain Infant Care % Improvement (n=1, Day 7 vs Day 0): 0.00%
BIMF functional domain Infant Care Δ (n=1, Day 7 vs Day 0): 0
BIMF functional domain Management % Improvement (n=1, Day 7 vs Day 0): 18%
BIMF functional domain Management Δ (n=1, Day 7 vs Day 0): 5
BIMF functional domain Mother-Child Interaction Δ (n=1, Day 7 vs Day 0): 2
BIMF functional domain Psychological Well-being Δ (n=1, Day 7 vs Day 0): 9
BIMF functional domain Self-Care % Improvement (n=1, Day 7 vs Day 0): 44%
BIMF functional domain Self-Care Δ (n=1, Day 7 vs Day 0): 4
BIMF functional domain Social Support Δ (n=1, Day 7 vs Day 0): 1
BIMF item 1 (I am a good mother) Δ (n=1, Day 7 vs Day 0): 0
BIMF item 2 (I feel rested) Δ (n=1, Day 7 vs Day 0): 2
BIMF item 3 (I am comfortable with the way I've chosen to feed my baby) Δ (n=1, Day 7 vs Day 0): 0
BIMF item 4 (My baby and I understand each other) Δ (n=1, Day 7 vs Day 0): 0
BIMF item 5 (I am able to relax and enjoy time with my baby) Δ (n=1, Day 7 vs Day 0): 1
BIMF item 6 (There are people in my life that I can trust to care for my baby when I need a break) Δ (n=1, Day 7 vs Day 0): 0
BIMF item 8 (I am getting enough adult interaction) Δ (n=1, Day 7 vs Day 0): 0
BIMF item 9 (I am getting enough encouragement from other people) Δ (n=1, Day 7 vs Day 0): 1
BIMF item 10 (I trust my own feelings (instincts) when it comes to taking care of my baby) Δ (n=1, Day 7 vs Day 0): 1
BIMF item 11 (I take a little time each week to do something for myself) Δ (n=1, Day 7 vs Day 0): 1
BIMF item 12 (I am taking good care of my baby's physical needs) Δ (n=1, Day 7 vs Day 0): 0
BIMF item 13 (I am taking good care of my physical needs) Δ (n=1, Day 7 vs Day 0): 1
BIMF item 14 (I make good decisions about my baby's health and well being) Δ (n=1, Day 7 vs Day 0): 0
BIMF item 15 (My baby and I are getting into a routine) Δ (n=1, Day 7 vs Day 0): 1
BIMF item 16 (I worry about how other people judge me (as a mother)) Δ (n=1, Day 7 vs Day 0): 2
BIMF item 17 (I am able to take care of my baby and my other responsibilities) Δ (n=1, Day 7 vs Day 0): 0
BIMF item 18 (Anxiety or worry often interferes with my mothering ability) Δ (n=1, Day 7 vs Day 0): 3
BIMF item 19 (As time goes on, I am getting better at taking care of my baby) Δ (n=1, Day 7 vs Day 0): 1
BIMF item 20 (I am satisfied with the job I am doing as a new mother) Δ (n=1, Day 7 vs Day 0): −1
BPRS Tension improvement (n=1, Discharge): 5
Vital parameters (n=1, shortly after administration): temporary, clinically non-relevant increase in heart rate and blood pressure
